Results taken from publication PMC11294338 (Nature Communications, 2024).
pEC50: −log10 of the molar value.

Tests used:
[1] = tested on: SARS-CoV-2 (USA-WA1/2020) replicon in HuH-7 cells; type: cell-based
SARS-CoV-2 [2] = details: in vivo; cited from earlier work
SARS-CoV-2 [3] = details: human, in vivo; cited from earlier work

| Compound | pEC50 [1] | transmission to untreated contact animals (SARS-CoV-2 [2]) | post-exposure prophylactic prevention of transmission versus placebo (SARS-CoV-2 [3]) |
| --- | --- | --- | --- |
| CC(C)(C)[C@H](NC(=O)C(F)(F)F)C(=O)N1C[C@H]2[C@@H]([C@H]1C(=O)N[C@H](C#N)C[C@@H]1CCNC1=O)C2(C)C [Nirmatrelvir] | 7.82 |  |  |
| CC(C)C(=O)OC[C@H]1O[C@@H](n2ccc(NO)nc2=O)[C@H](O)[C@@H]1O [molnupiravir] |  | prevented such transmission | neither was able to reach statistical significance over placebo |
